Experimental data reported in patent publication US9682058B2, “Method of treating viral infections by administration of ethyl mercury or thiol derivative thereof” (BEECH TREE LABS, INC., priority 2010, dated 2017).
Values joined by “and” are separate entries in the source; they are usually repeats but may differ in a detail not shown here. Equal values may be shown once. Read-outs that look alike come from different tables or passages of the source.

Columns and labels:
adenovirus = conditions: person, one drop (0.05 cc) every 15 minutes for an hour, then every hour until bedtime
Experimental: A person with symptoms of an adenovirus infection took one drop of thimerosal (in a dose of 0.05 cc) every 15 minutes for an hour, and then one drop every hour until bedtime.

porcine oocytes = conditions: cited from earlier work
HSV [1] = conditions: Vero cells, 40 ng/ml
Experimental: Green Monkey Kidney (Vero) cells were treated with thimerosal (40 ng/ml) at various time points (30 minutes, 1 hour, 2 hours, 3, hours, 4 hours, 6 hours and 8 hours) after HSV infection. The number of plaques formed on day 6 post-infection was used to measure the effectiveness of thimerosal in preventing HSV infections. The number of plaques was normalized to the number of plaques in the control.

Vero cells [2] = conditions: thimerosal doses tested (40 ng or 80 ng in 100 μl media)
Experimental: Vero cells were plated to a density of 70% confluency in 96-well dishes at a concentration of 75,000 cells/well). Cells were pretreated with either 40 ng or 80 ng thimerosal in 100 μl media for either 1 hour, 2 hours, 3 hours, 4 hours or 16 hours prior to infection.
After 1 hour at 37° C., virus was removed and cells were washed with unsupplemented MEM to remove unbound virus. The cells were then fed 100 μl/well complete media and stained for Tad (BK virus) or V-ag (JC virus) and scored via direct immunofluorescence.

HSV [3] = conditions: ARPE-19 cells, media of PBMCs incubated with 40 ng/ml thimerosal, overlaid prior to HSV infection
Experimental: PBMCs were incubated with 40 ng/ml thimerosal for a minimum of 6 hours and then were overlaid in ARPE-19 cells at various time points (12 hours, 4 hours, 2 hours, 1 hour, 30 minutes and 10 minutes) prior to HSV infection of the ARPE-19 cells. ARPE-19 cells were not continuously treated with thimerosal. ARPE-19 cells receiving thimerosal treatment with PBMC media was used as a control. The number of plaques formed on day 6 post-infection was used to measure the effectiveness of thimerosal in preventing HSV infections. The number of plaques was normalized to the number of plaques in the control.

[4] = tested on: molluscum contagiosum, a poxvirus infection; conditions: several children, one drop (0.05 cc) every 15 minutes for an hour, then hourly; six times daily on days 2 and 3
BK virus [5] = tested on: BK virus
laryngeal papillomas = conditions: child, one drop (0.05 cc) every 15 minutes for an hour, then hourly; six times daily on days 2 and 3
Experimental: A child suffering from laryngeal papillomas spreading to the soft palate was treated with one drop of thimerosal (in a dose of 0.05 cc) every 15 minutes for an hour and then one drop every hour until bedtime. Thimerosal was administered in one drop every six times daily on days 2 and 3 and then as needed on subsequent days.

HSV [6] = conditions: ARPE-19 cells, 40 ng/ml, continuous treatment before HSV infection, depending on the treatment time point
Vero cells [7] = tested on: Vero cells
BK virus [8] = tested on: BK virus; remark: listed apart in the source
herpes viruses = conditions: cited from earlier work
[9] = Text: A parent shared a drink with their child. Later that day the child asked their parent, who is an RN, to check the child's glands as they felt swollen and their throat hurt.
HSV [10] = conditions: Vero cells, 40 ng/ml; remark: listed apart in the source
Experimental: Green Monkey Kidney (Vero) cells were treated with thimerosal (40 ng/ml) at various time points (12 hours, 4 hours, 1 hour, and 30 minutes) prior to and at the time of HSV infection. The number of plaques formed on day 6 post-infection was used to measure the effectiveness of thimerosal in preventing HSV infections.

common cold = tested on: common cold
Experimental: A fifty-three old person with classic symptoms of the common cold used one drop of thimerosal (in a dose of 0.05 cc) every hour for one day.
The child of the person in Example 4 was treated with thimerosal for the common cold on several occasions. The child experienced symptoms for 5-7 days without treatment, which was reduced to 1-3 days when treated with thimerosal.

herpes virus = conditions: cited from earlier work
[11] = treatment at the time of infection

Structure (SMILES): C[CH2][Hg][S]c1ccccc1C(=O)[O-].[Na+] [thimerosal]
- symptoms of an adenovirus infection (adenovirus): significantly reduced and were gone the next day
- oocyte activation (porcine oocytes; 10 minute exposure to 200 μM thimerosal followed by 30 minute incubation in 8 mM DTT): induced complete activation of porcine oocytes
- oocyte cell-cycle effect (porcine oocytes; thimerosal treatment alone): arrests oocytes in metaphase
- number of plaques formed on day 6 post-infection (HSV [1]; all other post-infection time points (30 minutes, 4, 6, 8 hours)): did not significantly reduce the number of plaques
- number of plaques formed on day 6 post-infection (HSV [1]; post-infection treatment from 1-3 hours): significant reduction in the plaque numbers
- number of plaques formed on day 6 post-infection (HSV [1]; [11]): did not change the number of plaques
- infectivity of the JC virus (JC virus): did not appear to inhibit infectivity
- Fold changes (vs. Control) (POLR2A): −1.84
- toxicity to cells (Vero cells [2]): did not appear to be toxic
- antiviral activity (plaques day 6) versus thimerosal alone (HSV [3]): stronger antiviral activity
- treatment outcome of molluscum contagiosum [4]: successfully treated
- infectivity of BK virus (BK virus [5]): reduction of the infectivity of the virus
- reduction of infectivity of BK virus (BK virus [5]): approximately 30%
- resolution of the symptoms of laryngeal papillomas (laryngeal papillomas): complete in five days
- inhibition of the activity of HSV (plaques, percent of control) (HSV [6]): up to 55%
- Fold changes (vs. Control) (TUBE1): 1.95 and 2.03 and 1.98
- Fold changes (vs. Control) (TUBB4): 2.13 and 2.12
- Fold changes (vs. Control) (LAT-SPNS1): 1.87
- toxicity to cells (Vero cells [7]): appeared to be toxic
- Fold changes (vs. Control) (TUBB4Q): 1.85
- infectivity of BK virus (BK virus [8]): reduction of the infectivity of the virus
- anti-herpes virus activity in vitro (herpes viruses): demonstrate activity against herpes viruses
- viral propagation (herpes viruses; thimerosal mixed in a test tube with herpes virus, subsequently introduced into susceptible cells): viral propagation is not inhibited
- Fold changes (vs. Control) (TUBA4A): 1.96 and 2 and 1.95
- symptoms (swollen glands, sore throat) ([9]; child, one drop (0.05 cc) at a two hour interval): symptoms were resolved
- development of symptoms after prophylactic dosing ([9]; parent, dosed as a prophylactic measure): did not develop any symptoms
- number of plaques formed on day 6 post-infection (HSV [10]; prophylactic therapy (12 hours, 4 hours, 1 hour, 30 minutes prior to HSV infection)): significant decrease in the number of plaques
- number of plaques formed on day 6 post-infection (HSV [10]; treatment 1 hour prior to HSV infection): highest reduction in the plaque number
- number of plaques formed on day 6 post-infection (HSV [10]; [11]): did not reduce the number of plaques
- duration of common cold symptoms when treated (common cold; child, several occasions, 5-7 days without treatment): 1 to 3 days
- symptoms of the common cold (common cold; fifty-three old male, one drop (0.05 cc) every hour for one day): resolved by the next day
- Fold changes (vs. Control) (SP1): 1.95 and 2.04 and 2

Structure (SMILES): O=C(O)c1ccccc1SSc1ccccc1C(=O)O [dithiodibenzoic acid]
- anti-herpes virus activity in vitro (herpes viruses): indicated anti-herpes virus activity in vitro
- antiviral activity in vivo (herpes virus): do not provide antiviral activity in vivo

Structure (SMILES): O=C(O)c1ccccc1S [thiosalicylic acid]
- antiviral activity in vivo (herpes virus): do not provide antiviral activity in vivo
